# Key:
# Format in all cases: cell-based
# Human primary T cells = experiment: T cell activation with anti-CD3/anti-CD28; conditions: for Number of activated cells (CD3+CD25+CD69+ cells) / Proliferation rate (CTV) / Surface marker expression (CD69, CD154, CD134, CD25, CD18, CD49a, CD54) / Apoptosis (zombie staining) / Cytokine release (IL-17A, IL-10, IFN-γ): activated T cells, 5 days; for Apoptosis (zombie staining): 0.25-0.5 nM; for Cytokine release (IL-17A, IL-10, IFN-γ): CBA; for Effect on the release of inflammatory markers, T Cells: summary table
# Procedure: T cells were activated as previously described. Briefly, 1.75 × 10^5 T cells (stained with 0.2 µM CellTrace^TM violet (CTV) (ThermoFisher Scientific, Schwerte, Germany)) per well were pretreated with PatA (0.25, 0.5 nM), DMDA (0.25, 0.5 nM) or vehicle (DMSO) for 30 min in RPMI 1640 medium supplemented with 2 mM glutamine, 50 Units/mL IL-2, 1% penicillin/streptomycin and 10% FCS. Afterwards, they were seeded in CD3-coated 96-well plates and stimulated with 2 µg/mL CD28 for 5 days. CTV staining was performed according to the protocol of supplier.
# (§1) Surface marker analysis was performed as described previously. Briefly, 1.5–2 × 10^5 cells of each sample were blocked with human FcR Blocking Reagent (15 min, 4 °C). A Zombie Aqua™ Fixable Viability Kit (1:500 dilution, BioLegend, San Diego, CA, USA) was used according to the manufactory protocol to discriminate living and dead cells. Afterwards, samples were stained with a mixture of different surface marker antibodies (15 min, 4 °C) and measured with MACSQuant® Analyzer 10 flow cytometer. For M1-/M2-MdMs anti-CD86, anti-CD14, anti-HLA-DR, anti-CD206, anti-CD80, anti-TREM2 and anti-CD163 were used. For T cells, anti-CD69, anti-CD54, anti-CD49a, anti-CD18, anti-CD134, anti-CD154, anti-CD3 and anti-CD25 were analyzed. For B cells, anti-CD27, anti-CD19 and anti-CD38 were applied. For T cell and B cell proliferation assay, freshly isolated T and B cells were stained with CTV and detected using flow cytometry. Naïve B cells were characterized as CD19^+CD27^lowCD38^med, memory B cells as CD19^+CD27^med CD38^low and plasma cells as CD27^+CD38^+ cells. M1 MdMs and M2 MdMs cell population was gated using FSC/SSC channel. T cells were gated as CD3^+CD25^+ positive cells. The geometric mean of the fluorescent intensity was calculated using FlowJo software v10 (Treestar, Ashland, […], USA). Fold induction of surface marker expression was calculated using the DMSO-treated cells as the control.
# (§2) For determination of cytokine concentrations in the supernatant of humane immune cells, cytometric bead array (BD Biosciences, Heidelberg, Germany) for IL-10, IL-17, IL-8, IL-6, IFN-γ and CCL2 was used. For the detection of CCL18, CCL17, IgG, IgA and PGE2, an ELISA was performed. The cytometric bead arrays and the ELISAs were performed according to the protocol of the supplier.
# Human primary B cells = experiment: B cell activation with IL-21, sCD40L, CpG and anti-IgM; conditions: for B cell activation (formation of plasma cells, proliferation, release of IgGs) / Cell viability (zombie staining): activated B cells, 5 days; for Effect on the release of inflammatory markers, B Cells: summary table
# Procedure: B cells were activated as described by Khoenkhoen et al.. […].
# as §1, with “[…].” for “A Zombie Aqua™ Fixable Viability Kit (1:500 dilution, BioLegend, San Diego, CA, USA) was used according to the manufactory protocol to discriminate living and dead cells.”
# as §2
# [1] = system: Salmonella typhimurium strain TA100; experiment: Ames MPF test, strain TA100; conditions: TA100, with and without S9, 10-250 nM
# Procedure: The Ames MPF 98/100 test (Xenometrix, Allschwil, Switzerland) was performed as recommended by the supplier and recently published. Briefly, two bacteria strains incapable of producing histidine (Salmonella typhimurium strains TA98 and TA100) were used. Liver homogenate S9 was applied to simulate the metabolic conversions of PatA and DMDA. After exposure to increasing concentrations of PatA (0, 10, 50, 250 nM), DMDA (0, 10, 50, 250 nM) or with positive controls (2 μg/mL for 2-NF (TA98), 2.5 μg/mL for 4-NQO (TA100), 63 μg/mL (TA100 with SF9) and 25 µg/mL (TA98 with SF9) for 2-AA), the cultures were diluted in pH indicator medium lacking histidine and incubated for two days. Cells that had undergone reversion to amino acid prototrophy grew into colonies and bacterial metabolism reduced the pH of the medium, changing the color of that well. Revertant colony numbers of each well were counted and related to the negative control (DMSO). The experiment was conducted once in triplicate. The Ames MPF calculation sheet provided by Xenometrix was used for data analysis. Fold induction over the baseline was calculated as the ratio of the mean number of positive wells to the baseline. The baseline was obtained by adding one standard deviation to the mean number of positive wells of the solvent control. Compounds with mutagenic potential were characterized by revertant numbers above the baseline.
Structure (SMILES),Number of activated cells (CD3+CD25+CD69+ cells) (Human primary T cells),Proliferation rate (CTV) (Human primary T cells),"Surface marker expression (CD69, CD154, CD134, CD25, CD18, CD49a, CD54) (Human primary T cells)",Apoptosis (zombie staining) (Human primary T cells),"Cytokine release (IL-17A, IL-10, IFN-γ) (Human primary T cells)","Effect on the release of inflammatory markers, T Cells (Human primary T cells)","B cell activation (formation of plasma cells, proliferation, release of IgGs) (Human primary B cells)",Cell viability (zombie staining) (Human primary B cells),"Effect on the release of inflammatory markers, B Cells (Human primary B cells)",Mutagenic potential (Ames test) [1],"B cell activation (formation of plasma cells, proliferation, release of IgGs) (Human primary B cells; 0.5 nM)"
"CC(/C=C/C(C)=C/[C@@H]1Cc2nc(cs2)CCCCC(=O)O[C@@H](C)C/C(C)=C/C=C\C(=O)O1)=C\CN(C)C [DMDA, des-methyl des-amino pateamine A]",did not influence the number of activated cells,Neither had any effects,Neither had any effects,showed no apoptotic effects,Neither had any effects,No effect,did not prevent B cell activation,did not reduce cell viability,No effect,negative in all Ames mutagenic assays,
"CC(/C=C/C(C)=C/[C@@H]1Cc2nc(cs2)[C@@H](C)C[C@@H](N)CC(=O)O[C@@H](C)C/C(C)=C/C=C\C(=O)O1)=C\CN(C)C [PatA, pateamine A]",did not influence the number of activated cells,Neither had any effects,Neither had any effects,showed no apoptotic effects,Neither had any effects,No effect,,did not reduce cell viability,"IgA↓, IgG↓",negative in all Ames mutagenic assays,showed similar effects to those of rapamycin
